Measurements as given in patent US20180282339A1 (OLON S.P.A., priority 2015, published 2018).

Conditions: conditions not specified at this place, b45 (heating at 60-120 ° C. for 1-12 hours gives amorphous form)
Protocol: In particular the following tests have been made: • stability at 25° C./40% Relative Humidity for 7 days • stability at 40° C./75% Relative Humidity for 7 days • stability at 25° C./60% Relative Humidity for 7 days • stability at 60° C./40% Relative Humidity for 7 days

C=CC(=O)N1CCC[C@@H](n2nc(-c3ccc(Oc4ccccc4)cc3)c3c(N)ncnc32)C1 [Form L, 1-[(3R)-3-[4-amino-3-(4-phenoxyphenyl)-1H-pyrazolo[3,4-d]pyrimidin-1-yl]piperidin-1-yl]prop-2-en-1-one]
solid form conversion in some conditions: converts in Form A or in the amorphous form
